Data on two compounds can be found in paper PMC10502144, “Anti-methicillin-resistant Staphylococcus aureus activity and safety evaluation of 14-O-[(5-ethoxycarbonyl-4,6-dimethylpyrimidine-2-yl) thioacetyl] mutilin (EDT)” (Scientific Reports, 2023).

One series has as its system female Wistar rats. Briefly: Acute oral toxicity test (OECD423). The conditions noted are these: for Absolute organ weight, Heart / Absolute organ weight, Kidneys / Absolute organ weight, Liver / Absolute organ weight, Lungs / Absolute organ weight, Ovaries / Absolute organ weight, Spleen / Absolute organ weight, Uterus: 2000 mg/kg oral single dose; for Relative organ weight, Kidneys: organ/b.w. × 100. The class given is in vivo. Here is the method:
Adult specific pathogen free (SPF) female Wistar rats (4–6 weeks old) were purchased from Lanzhou Veterinary Research Institute, Chinese Academy of Agricultural Sciences. Animals were kept in clean stainless steel cages (3 rats per cage), free access to food and water and maintained under the 23 °C conditions with a constant 12 h light–dark cycle. Animals were acclimatized for at least 7 days before the experiment. […] The animal study was carried out in compliance with the ARRIVE guidelines.
Acute toxicity tests of EDT were performed according to OECD423 bulletin[23]. This method can measure drug roughly LD50 with fewer experimental animals. […] Six animals were randomly separated into one treatment group (n = 3) and control group (n = 3). Rats in treatment group were orally administered with a single dose of 2000 mg/kg of EDT dissolved in vehicle (corn oil: DMSO = 4:1) in a volume of 10 mL/kg body weight (b.w.) by gavage. Animals in the control group only received 10 mL/kg vehicle. […] After first round treatment, observations were focused on mortality, behavioural symptoms and changes in skin, eyes and fur. Individual body weight was recorded at the starting of protocol and at the end of protocol. […] On the 14th day, all the surviving animals were euthanized with ketamine hydrochloride 70 mg/kg (i.p.) and their hearts, livers, spleens, lungs, kidneys, uterus and ovaries were individually observed for overt pathology and removed for relative weight calculation (organ/b.w. × 100).

Series [1] is described as follows: Cytotoxicity assay (CCK-8), HEK293T. The class given is cell-based. The settings on record: human, HEK293T cells. As to the method:
Cytotoxicity of EDT and tiamulin was studied against human hepatocellular carcinoma cells (HepG2) and human embryonic kidney 293T (HEK293T) cells following a protocol as published in our earlier reports[41],[42]. Cells were counted and inoculated into 96-well plates with approximately10^5 cells density for incubating 24 h at 37 °C. […] The same procedure was repeated three times. The percentages of cell viability were calculated by the formula: Cell viability (%) = [Asample ‒ Anegative]/[Apositve ‒ Anegative] × 100%.

Series [2] can be described thus: Microsomal stability assay, mouse. The series is classed as in vitro ADME. The conditions noted are these: mouse liver microsomes. Here is the method: (§1) Mouse and human liver microsomes were thawed slowly on ice. A total of 5 mg/mL of microsomes, 2 μL of a 100 μM solution of EDT and 183 μL of 100 mM phosphate buffer were incubated 5 min at 37 °C in a water bath. Reactions were initiated using 10 μL of 20 mM NADPH. Samples were incubated in three replicates at 37 °C under gentle agitation at 150 rpm. At 0, 5, 15, 30, and 60 min, reactions were terminated by the addition of 180 μL of acetonitrile. After centrifugation (4000 rpm, 10 min), samples were then analyzed by liquid chromatography/tandem mass spectrometry (LC–MS/MS). Peak areas of the respective time point of the compound were normalized to the peak area at time point 0 min. Then half-life was calculated using linear regression from log percentage (t1/2 = − 0.693/k).

Series [3] deals with S. Typhimurium TA97a, TA98, TA100, TA102, TA1535 and Escherichia coli WP2uvrA pKM101. The series is described as follows: Ames test, all tested strains (overall result and preliminary dose finding). The class given is cell-based, Salmonella Typhimurium; Escherichia coli. As to the method: Before the test, Salmonella Typhimurium (S. Typhimurium) TA97a, TA98, TA100, TA102, TA1535 and Escherichia coli WP2uvrA pKM101 (pKM101) were first checked for their genetic integrity, including biotin dependence, rfa marker (crystal violet), biotin, histidine dependence and presence of the plasmid pKM101 (ampicillin resistance) or pAQ1 (tetracycline resistance). […] The maximum concentration of EDT was also screened using a preliminary experiment.
DMSO (0.1 mL) was directly incorporated into 1.9 mL melted top agar as the vehicle control. […] Each strain (0.1 mL, 6–7 log10 CFU/mL) was added into 2 mL of top agar in which comprised 0.5 mL S9 (10%), serial concentrations of EDT (2000, 400, 80, 16 and 3.2 μg/plate), DMSO or control chemicals for testing with the S9. For testing without S9, 0.5 mL phosphate buffer saline (PBS, pH 7.4) replaced the S9 mix. Then, the obtained top agar was melted, poured onto the surface of […] and swirled to distribute the top agar to all surfaces of medium, followed by incubation at 37 °C for 48 h. The resultant colonies were counted manually as the number of revertant colonies per plate. The experiments were performed in triplicate and the results were expressed as the average ± SD.

Series [4] can be described thus: Microsomal stability assay, human. The class given is in vitro ADME. The settings on record: human liver microsomes. Here is the method:
as §1

The next series concerns MRSA-337371. Briefly: Post-antibiotic effect (PAE) test, viable counting. The conditions noted are these: 1 h exposure; for PAE values, concentration dependence: 1×, 2×, 4× and 8× MIC. The class given is cell-based, methicillin-resistant Staphylococcus aureus. As to the method:
The PAE of EDT against MRSA-337371 was determined using a standard viable counting method. We selected 1 × , 2 × , 4 × and 8 × MICs of EDT and tiamulin (0.0313 and 0.5 μg/mL, respectively), to conduct PAE test on MRSA strains. The strains (1 × 10^5 CFU/mL) were placed in MHB broth test tubes containing the above four concentrations of EDT and tiamulin, respectively, and cultured in a shaking bed at 37 °C for 1 h, followed by centrifuging for 10 min at 4000 r/min. The supernatants were discarded and the precipitations were dissolved with 2 mL normal saline to centrifuge. The same procedure was repeated three times. The final bacterial precipitates were taken and cultured in MHB broth with the initial concentration of 5.5 Log CFU/mL at 37 °C in a shaking bed. Samples were then taken at 0, 1, 2, 3, 4, 5, 6, 8, 12, 18 and 24 h to dilute 10–100,000 times and the 10 μL dilutions were evenly smear on MHA plate medium to culture at 37 °C for 48 h. Finally, the average numbers of colonies on the plates were obtained and the PAE values were calculated as hour using equation PAE = T − C, in which T was the time required for the increase of 1 log10 CFU/mL after the removal of drugs and C was the time required for the number of MRSA in the control tube to increase by 1 log10 CFU/mL. Experiments were performed in triplicate.

SMILES strings stand for the structures. Structures can show the parent of a compound that is named as a salt.

For the compound `C=CC1(C)CC(OC(=O)CSc2nc(C)c(C(=O)OCC)c(C)n2)C2(C)C(C)CCC3(CCC(=O)C32)C(C)C1O` (stereo not shown) [EDT, 14-O-[(5-ethoxycarbonyl-4,6-dimethylpyrimidine-2-yl)thioacetyl] mutilin], the LD50 entry in the series with female Wistar rats (female Wistar rats, single oral dose, OECD Guidelines 423) was “more than 2000 mg/kg body weight”. In the series on female Wistar rats (first round treatment, day 14), the “Absolute organ weight, Heart” value came to 0.71 ± 0.06 g; the “Absolute organ weight, Kidneys” value is 1.11 ± 0.01 g; the “Absolute organ weight, Liver” value came out at 9.66 ± 0.17 g; the “Absolute organ weight, Lungs” value came to 1.38 ± 0.03 g. Also, in the series with female Wistar rats (first round treatment, day 14), the “Absolute organ weight, Ovaries” value is on record as 0.06 ± 0.00 g; the “Absolute organ weight, Spleen” value came out at 0.70 ± 0.03 g; the “Absolute organ weight, Uterus” value is given as 0.45 ± 0.02 g. In addition, the “Relative organ weight, Kidneys” value with female Wistar rats (first round treatment) is 0.52 ± 0.01%. Further, in the series on female Wistar rats (rat, in vivo), the “Relative organ weight, Ovaries” value is given as 0.03 ± 0.00% and the “Relative organ weight, Spleen” value was found to be 0.33 ± 0.01%. In the series on female Wistar rats (rat, in vivo, po, 2000 mg/kg), the mortality entry is given as “no mortality”. In the series with female Wistar rats (second round treatment, day 14), the “Absolute organ weight, Heart” value was 0.75 ± 0.03 g; the “Absolute organ weight, Kidneys” value is 1.11 ± 0.03 g; the “Absolute organ weight, Liver” value came out at 9.69 ± 0.06 g; the “Absolute organ weight, Lungs” value worked out at 1.40 ± 0.05 g. Moreover, in the series with female Wistar rats (second round treatment, day 14), the “Absolute organ weight, Ovaries” value is reported as 0.06 ± 0.00 g; the “Absolute organ weight, Spleen” value is given as 0.71 ± 0.03 g; the “Absolute organ weight, Uterus” value turned out to be 0.43 ± 0.03 g. Besides, the “Relative organ weight, Kidneys” value with female Wistar rats (second round treatment) is on record as 0.52 ± 0.01%. Further, in the series with female Wistar rats (single oral 2000 mg/kg, 14 days), the “body weight compared to the control group” value is given as “did not produce alterations in body weight”. The macroscopic necropsy examination result in the series with female Wistar rats (single oral 2000 mg/kg, day 14) is reported as “no gross pathological lesions”. In series [1] (200 μM converted to μg/mL), this compound yielded a CC50 at 6 h of more than 115 mg/L. The CC50 at 6 h in series [1] (deduced from Fig. 5) is more than 200 µM. Moreover, in series [2], the half-life at 1 μM was 30.1 min and the microsomal CLint at 1 μM was 46 µL/min/mg. Also, the “toxicity to the test strains, preliminary experiment” value in series [3] (2000 μg/plate) is recorded as “not toxic”. Further, the “toxicity to the test strains, preliminary experiment” value in series [3] (5000 μg/plate) is on record as “inhibited the test strains”. The “number of revertant colonies compared with the vehicle control” value in series [3] (3.2-2000 μg/plate, −S9 and +S9, all strains) is given as “no significantly different”. In series [4], the half-life at 1 μM turned out to be 43.6 min and the microsomal CLint at 1 μM is 31.8 µL/min/mg. Besides, the “PAE values, concentration dependence” value with MRSA-337371 is recorded as “increased PAE values in a concentration-dependent manner”. Besides, the “PAE values compared with tiamulin” value with MRSA-337371 (at four tested concentrations (1×, 2×, 4×, 8× MIC)) is listed as “extremely significantly higher than that of tiamulin”.
As for `C=C[C@]1(C)C[C@@H](OC(=O)CSCCN(CC)CC)[C@]2(C)[C@H](C)CC[C@]3(CCC(=O)[C@H]32)[C@@H](C)[C@@H]1O` [tiamulin, Tiamulin fumarate, reference compound], the “PAE values, concentration dependence” value in the series with MRSA-337371 is listed as “increased PAE values in a concentration-dependent manner”.
